What was measured:
[1] = test system: primary human mesenchymal stem cells (hMSCs); experiment: Chondrogenesis induction in mesenchymal stem cells (nodule count); format: cell-based; conditions: 144 h, 6 days; for Emax: relative to TGF-β3 (10 ng/mL) positive control, read-out: Max. Activity as % TGF-β3 activity; for EC50: concentration required to induce 50% levels of chondrogenesis vs TGF-β3, read-out: Conc (nM) of 50% TGF-β3 activity
Description: Representative compounds were screened using primary human mesenchymal stem cells (hMSCs) to determine their ability to induce chondrogenesis (process by which cartilage is developed).
Human Mesenchymal Stem Cell Culture: Primary human mesenchymal stem cells (hMSCs) were purchased from Lonza (Walkersville, Md.) and expanded in Mesenchymal Stem Cell Growth Media (Lonza). Cells between passage 3 and 6 were used for the experiments.
Compound Screening: Each compound was dissolved in DMSO as a 10 mM stock and used to prepare compound source plates. Serial dilution (1:3, 6-point dose-response curves from 2700 nM to 10 nM) and compound transfer was performed using the ECHO 550 (Labcyte, Sunnyvale, Calif.) into 96-well clear bottom assay plates (Greiner Bio-One) with appropriate DMSO backfill for a final DMSO concentration of 0.03%. hMSCs were plated at 20,000 cells/well in 250 μL/well Incomplete Chondrogenic Induction Medium (Lonza; DMEM, dexamethasone, ascorbate, insulin-transferrin-selenium [ITS supplement], gentamycin-amphotericin [GA-1000], sodium pyruvate, proline and L-glutamine). TGF-β3 (10 ng/mL) was used as a positive control for differentiation while negative control wells were treated with 75 nL DMSO for normalization and calculating EC50 values. Cells were incubated at 37° C. and 5% CO2 for 6 days. To image chondrogenic nodules, the cells were fixed using 4% formaldehyde (Electron Microscopy Sciences), and stained with 2 μg/mL Rhodamine B (Sigma-Aldrich) and 20 μM Nile Red (Sigma-Aldrich) [Johnson K., et. al, A Stem Cell-Based Approach to Cartilage Repair, Science, (2012). 336(6082), 717-721]. The nodules imaged (4 images per well at 4× magnification) by excitation at 531 nm and emission at 625 nm and quantified using the CellInsight CX5 (Thermo Scientific). Number of nodules in each well was normalized to the average of 3 DMSO treated wells on the same plate using Excel (Microsoft Inc.). The normalized averages (fold change over DMSO) of 3 replicate wells for each compound concentration were calculated. Due to solubility limitations of some of the compounds, curve fitting was incomplete leading to inaccurate EC50 determinations.
Using TGF-β3 as a positive control, the concentration of representative compounds required to induce 50% levels of chondrogenesis is reported. In addition, the maximum activity of each compound and the respective dose that each compound reached maximum chondrogenesis activity is reported.

[2] = test system: primary human fibroblasts derived from IPF patients (LL29 cells); experiment: Inhibition of the fibrotic process: αSMA staining in TGF-β1 treated fibroblasts; format: cell-based; conditions: Fibroblast; for EC50: 96 h, LL29 cells, TGF-β1 20 ng/mL, 4 days, % αSMA positive cells; for inhibition at 10 µM: given where EC50 >10 μM, LL29, αSMA, read-out: percent inhibition at 10 μM
Source text: Representative compounds were screened using primary human fibroblasts (derived from IPF patients) treated with TGF-β1 to determine their ability to inhibit the fibrotic process.
Human Fibroblast Cell Culture: Primary human fibroblasts derived from IPF patients (LL29 cells) [^1Xiaoqiu Liu, et. al., “Fibrotic Lung Fibroblasts Show Blunted Inhibition by cAMP Due to Deficient cAMP Response Element-Binding Protein Phosphorylation”, Journal of Pharmacology and Experimental Therapeutics (2005), 315(2), 678-687; ^2Watts, K. L., et. al., “RhoA signaling modulates cyclin D1 expression in human lung fibroblasts; implications for idiopathic pulmonary fibrosis”, Respiratory Research (2006), 7(1), 88] were obtained from American Type Culture Collection (ATCC) and expanded in F12 medium supplemented with 15% Fetal Bovine Serum and Penicillin/Streptomycin.
Compound Screening: Each compound was dissolved in DMSO as a 10 mM stock and used to prepare compound source plates. Serial dilution (1:2, 11-point dose-response curves from 10 μM to […]) and compound transfer was performed using the ECHO 550 (Labcyte, Sunnyvale, Calif.) into 384-well clear bottom assay plates (Greiner Bio-One) with appropriate DMSO backfill for a final DMSO concentration of 0.1%. LL29 cells are plated at 1,500 cells/well in 80 μL/well F12 medium supplemented with 1% Fetal Bovine Serum. One hour after addition of the cells, TGF-β1 (Peprotech; 20 ng/mL) was added to the plates to induce fibrosis (ref. 1 and 2 above). Wells treated with TGF-β1 and containing DMSO were used as controls. Cells were incubated at 37° C. and 5% CO2 for 4 days. Following incubation for 4 days, SYTOX green nucleic acid stain (Life Technologies [Thermo Fisher Scientific]) was added to the wells at a final concentration of 1 μM and incubated at room temperature for 30 min. Cells were then fixed using 4% formaldehyde (Electron Microscopy Sciences), washed 3 times with PBS followed by blocking and permeabilization using 3% Bovine Serum Albumin (BSA; Sigma) and 0.3% Triton X-100 (Sigma) in PBS. Cells were then stained with antibody specific to α-smooth muscle actin (αSMA; Abcam) (ref. 1 and 2 above) in 3% Bovine Serum Albumin (BSA; Sigma) and 0.3% Triton X-100 (Sigma) in PBS, and incubated overnight at 4° C. Cells were then washed 3 times with PBS, followed by incubation with Alexa Flor-647 conjugated secondary antibody (Life Technologies [Thermo Fisher Scientific]) and DAPI at room temperature for 1 hour. Cells were then washed 3 times with PBS and plates were sealed for imaging. αSMA staining was imaged by excitation at 630 nm and emission at 665 nm and quantified using the Compartmental Analysis program on the CellInsight CX5 (Thermo Scientific). Dead or apoptotic cells were excluded from analysis based on positive SYTOX green staining. % of total cells positive for αSMA were counted in each well and normalized to the average of 11 wells treated with TGF-β1 on the same plate using Dotmatics' Studies Software. The normalized averages (fold change over untreated) of 3 replicate wells for each compound concentration were used to create dose-responses curves and EC50 values were calculated using non-linear regression curve fit in the Dotmatics' Studies Software. For EC50 of >10 μM, the percent inhibition at 10 μM is provided.

| EC50 [1] | Compound | Emax [1] | EC50 [2] | inhibition at 10 µM [2] |
| --- | --- | --- | --- | --- |
| – | CN1CCN(c2ccnc3[nH]c(-c4n[nH]c5ccc(-c6cncc(NC(=O)CC(C)(C)C)c6)nc45)cc23)CC1 [Compound 240, 3,3-Dimethyl-N-(5-(3-(4-(4-methylpiperazin-1-yl)-1H-pyrrolo[2,3-b]pyridin-2-yl)-1H-pyrazolo[4,3-b]pyridin-5-yl)pyridin-3-yl)butanamide] | 30% | 670 nM | – |
| – | FC1(F)CCN(Cc2cncc(-c3ccc4[nH]nc(-c5cc6c(N7CCCCC7)ccnc6[nH]5)c4n3)c2)C1 [Compound 194, 5-(5-((3,3-Difluoropyrrolidin-1-yl)methyl)pyridin-3-yl)-3-(4-(piperidin-1-yl)-1H-pyrrolo[2,3-b]pyridin-2-yl)-1H-pyrazolo[4,3-b]pyridine] | 38% | 2550 nM | – |
| 900 nM | Fc1cccc(-c2ccnc3[nH]c(-c4n[nH]c5ccc(-c6cncc(CN7CCCCC7)c6)nc45)cc23)c1 [Compound 15, 3-(4-(3-Fluorophenyl)-1H-pyrrolo[2,3-b]pyridin-2-yl)-5-(5-(piperidin-1-ylmethyl)pyridin-3-yl)-1H-pyrazolo[4,3-b]pyridine] | 62% | > 10000 nM | 10.3% |
| 100 nM | c1cncc(-c2ccc3[nH]nc(-c4cc5c(-c6cccnc6)ccnc5[nH]4)c3n2)c1 [Compound 88, 5-(Pyridin-3-yl)-3-(4-(pyridin-3-yl)-1H-pyrrolo[2,3-b]pyridin-2-yl)-1H-pyrazolo[4,3-b]pyridine] | 59% | > 10000 nM | 25.3% |
| – | CN1CCN(c2ccnc3[nH]c(-c4n[nH]c5ccc(-c6cncc(NC(=O)C(C)(C)C)c6)nc45)cc23)CC1 [Compound 232, N-(5-(3-(4-(4-Methylpiperazin-1-yl)-1H-pyrrolo[2,3-b]pyridin-2-yl)-1H-pyrazolo[4,3-b]pyridin-5-yl)pyridin-3-yl)pivalamide] | 24% | 795 nM | – |
| 10 nM | CCNCc1cncc(-c2ccc3[nH]nc(-c4cc5cccnc5[nH]4)c3n2)c1 [Compound 258, N-((5-(3-(1H-Pyrrolo[2,3-b]pyridin-2-yl)-1H-pyrazolo[4,3-b]pyridin-5-yl)pyridin-3-yl)methyl)ethanamine] | 80% | 1580 nM | – |
| 900 nM | CN(C)CCNc1cc(F)cc(-c2ccnc3[nH]c(-c4n[nH]c5ccc(-c6cncc(CNCC7CCCC7)c6)nc45)cc23)c1 [Compound 473, N^1-(3-(2-(5-(5-(((Cyclopentylmethyl)amino)methyl)pyridin-3-yl)-1H-pyrazolo[4,3-b]pyridin-3-yl)-1H-pyrrolo[2,3-b]pyridin-4-yl)-5-fluorophenyl)-N^2,N^2-dimethylethane-1,2-diamine] | 111% | 2000 nM | – |
| – | CN(C)CCOc1cncc(-c2ccc3[nH]nc(-c4cc5c(-c6cccnc6)ccnc5[nH]4)c3n2)c1 [Compound 563, N,N-Dimethyl-2-((5-(3-(4-(pyridin-3-yl)-1H-pyrrolo[2,3-b]pyridin-2-yl)-1H-pyrazolo[4,3-b]pyridin-5-yl)pyridin-3-yl)oxy)ethan-1-amine] | 22% | 3040 nM | – |
| 900 nM | Cc1ccncc1-c1ccc2[nH]nc(-c3cc4c(N5CCCCC5)ccnc4[nH]3)c2n1 [Compound 173, 5-(4-Methylpyridin-3-yl)-3-(4-(piperidin-1-yl)-1H-pyrrolo[2,3-b]pyridin-2-yl)-1H-pyrazolo[4,3-b]pyridine] | 101% | > 10000 nM | 10.6% |
| – | CN(C)Cc1cncc(-c2ccc3[nH]nc(-c4cc5c(-c6ccccc6F)ccnc5[nH]4)c3n2)c1 [Compound 69, 1-(5-(3-(4-(2-Fluorophenyl)-1H-pyrrolo[2,3-b]pyridin-2-yl)-1H-pyrazolo [4,3-b]pyridin-5-yl)pyridin-3-yl)-N,N-dimethylmethanamine] | 44% | 2000 nM | – |
| 2700 nM | c1cc(-c2ccnc3[nH]c(-c4n[nH]c5ccc(-c6cncc(CN7CCCCC7)c6)nc45)cc23)ccn1 [Compound 127, 5-(5-(Piperidin-1-ylmethyl)pyridin-3-yl)-3-(4-(pyridin-4-yl)-1H-pyrrolo[2,3-b]pyridin-2-yl)-1H-pyrazolo[4,3-b]pyridine] | 55% | > 10000 nM | 0% |
| 10 nM | c1cncc(-c2ccc3[nH]nc(-c4cc5cccnc5[nH]4)c3n2)c1 [Compound 256, 5-(Pyridin-3-yl)-3-(1H-pyrrolo[2,3-b]pyridin-2-yl)-1H-pyrazolo[4,3-b]pyridine] | 66% | 308 nM | – |
| – | CN(C)CCNc1cc(F)cc(-c2ccnc3[nH]c(-c4n[nH]c5ccc(-c6ccncc6)nc45)cc23)c1 [Compound 466, N^1-(3-Fluoro-5-(2-(5-(pyridin-4-yl)-1H-pyrazolo[4,3-b]pyridin-3-yl)-1H-pyrrolo[2,3-b]pyridin-4-yl)phenyl)-N^2,N^2-dimethylethane-1,2-diamine] | 17% | 391 nM | – |
| 30 nM | CN(C)c1cncc(-c2ccc3[nH]nc(-c4cc5c(-c6cccnc6)ccnc5[nH]4)c3n2)c1 [Compound 91, N,N-Dimethyl-5-(3-(4-(pyridin-3-yl)-1H-pyrrolo[2,3-b]pyridin-2-yl)-1H-pyrazolo[4,3-b]pyridin-5-yl)pyridin-3-amine] | 71% | 2190 nM | – |
| 100 nM | FC1(F)CCN(Cc2cncc(-c3ccc4[nH]nc(-c5cc6cccnc6[nH]5)c4n3)c2)C1 [Compound 278, 5-(5-((3,3-Difluoropyrrolidin-1-yl)methyl)pyridin-3-yl)-3-(1H-pyrrolo[2,3-b]pyridin-2-yl)-1H-pyrazolo[4,3-b]pyridine] | 134% | 86 nM | – |
| 300 nM | Cc1ccncc1-c1ccc2[nH]nc(-c3cc4c(-c5ccncc5)ccnc4[nH]3)c2n1 [Compound 117, 5-(4-Methylpyridin-3-yl)-3-(4-(pyridin-4-yl)-1H-pyrrolo[2,3-b]pyridin-2-yl)-1H-pyrazolo[4,3-b]pyridine] | 56% | 600 nM | – |
